{
  "source": "patent US20210220347A1",
  "about": "(priority 2015, published 2021)",
  "origin": "cited, not measured here",
  "conditions": "in vivo",
  "data": [
    {"compound": "CN1CC[C@]23c4c5ccc(O)c4O[C@H]2[C@@H](O)C=C[C@H]3[C@H]1C5", "note": "[morphine]", "values": [
      {"measurement": "Respiratory depression dose response", "value": "linear and dose proportional"}
    ]}
  ]
}
